Read-outs that look alike come from different tables or passages of the source.
Key:
[1] = tested on: C. elegans VC2010 (wild type); experiment: WormScan screen of C. elegans growth, fecundity, motility and mortality; assay type: in vivo, Caenorhabditis elegans; conditions: Caenorhabditis elegans, 120 h, 5 days exposure
Description: (§1) All compound libraries were stored in 96-well plates, with 80 drugs per plate (columns 1 and 12 left empty). A BioGrid BG600 pinning robot (Digilab / BioRobotics) was used for compound transfer. The robot uses a 96-pin tool (0.7 mm dia.) to transfer a nominal volume of 340 nL of compound. For retesting, compounds were hand pinned from the original library plates to assay plates using a single 0.7 mm dia. pin. The assay plates were 96-well clear flat-bottom microplates containing 2% χ1666 E.coli bacteria in 0.5X Liquid Nematode Growth Media (LNGM) plus cholesterol (Bacteria were mass-grown in rich media, and harvested by centrifugation to produce a thick paste of bacterial cells that was kept frozen at -20°C. Cells were resuspended at 2% W/V in 0.5X LNGM to produce liquid worm food). Using a COPAS Biosort (Union Biometrica), two L4 to young adult stage VC2010 worms were added to each well of the plate in a final volume of 45 μL. After five days of exposure to the compounds, the plates were scanned and the data analyzed. A five day time period was chosen to be able to observe effects over all stages of the life cycle and through at least one round of replication. The initial proof-of-principle primary screen was performed manually using a dissecting microscope. Phenotypes scored included decreased motility, reduced brood size, and/or death as described previously. For high throughput screening of the Chembridge and Maybridge compound libraries we used the program WormScan, which was adapted for screening 96-well flat-bottom LNGM plates. Using WormScan it was possible to screen four 96-well plates at a time. Plates were scanned twice, at a resolution of 1200 dots per inch, 16-bit grayscale, producing a jpeg image. The light intensity produced by the scanner was sufficient to cause negative phototaxis equivalent to a physical stimulus for mortality determination. The time required to scan four 96-well plates using an Epson Perfection V700 Photo Scanner was less than ten minutes. The time to screen a single plate was less than 1.2 minutes, with less than ten seconds between scans.
(§2) WormScan was used to screen for the same phenotypes as in the manual screen (reduced brood size, reduced behavior/motility response and increased mortality). Two sequential scans for each 96-well plate were aligned to a reference region of interest (ROI). Image analysis was based on a difference image score calculated for each ROI. The difference image score (WormScan score) was normalized using a “percent of control” method to derive a normalized WormScan score. […] Wild-type growth in 1% DMSO (Fig 1A) results in a normalized WormScan score of 100. Exposure to 50 nM ivermectin gives a score of 0 (Fig 1C), and complete absence of worms gives a score of 0 (Fig 1D). For the primary screen the WormScan score was calculated using custom macro scripts written for Fiji. For secondary screening and any subsequent studies the WormScan score was calculated using a standalone Java program (See supplemental). Probit regression of mortality was calculated using Mathematica 8.0.

[2] = tested on: Human embryonic kidney (HEK293) cells; experiment: HEK293 viability, MTT colorimetric assay; assay type: cell-based; conditions: Homo sapiens, read-out: Mammalian IC50
Description: Potential anthelmintic compounds identified from primary screening were further tested against mammalian cells and yeast to determine whether they had deleterious effects in those organisms. Human embryonic kidney (HEK293) cells were grown in Dulbecco’s Modified Eagle’s Medium (DMEM; Sigma) containing 5% fetal bovine serum (FBS; Sigma) in 96-well plates tissue culture plates. Compounds were added 24h post-plating at 10, 30, 100, or 300 μM final concentrations. Dimethyl sulfoxide (DMSO) was used as a negative control at 0.1%. Cells were treated for 24 or 48 hours, after which time viability was assessed using a 3-(4,5-dimethylthiazol-2-yl)-2,5-diphenyltetrazolium bromide (MTT) colorimetric assay. Percent viability was determined by comparing treatment values to DMSO control values.

[3] = tested on: S. cerevisiae yeast strain BY4743; experiment: Yeast growth rate (OD600) dose titration; assay type: cell-based; conditions: Saccharomyces cerevisiae; BY4743, YPD, growth rate reduced by 50%
Description: The S. cerevisiae yeast strain BY4743 (MATa/α his3Δ1/his3Δ1 leu2Δ0/leu2Δ0 LYS2/lys2Δ0 met15Δ0/MET15 ura3Δ0/ura3Δ0) was used for all yeast experiments and was grown using yeast extract peptone dextrose (YPD) media at pH 7 [52]. BY4743 was grown overnight to initial log phase and was then grown with the compound identified in the C. elegans assay. The growth rate was quantified by continuously monitoring the optical density of the liquid yeast growth at OD600. The compound was screened in a dose-titration in YPD as described. The IC50 was the concentration required to reduce the growth rate or Average G value by 50% compared to a vehicle control (2% DMSO).

[4] = tested on: C. elegans CB3474 (ben-1(e1880), benomyl resistant); experiment: IC50 on benzimidazole resistant C. elegans strain; assay type: in vivo, Caenorhabditis elegans; conditions: Caenorhabditis elegans, 120 h; 5 days exposure, 2 L4 per well, three biological replicates
[5] = tested on: C. elegans VC3631 (mev-1 gk3613, D19 resistant); experiment: IC50 on CID 2747322 resistant C. elegans strain VC3631; assay type: in vivo, Caenorhabditis elegans; conditions: Caenorhabditis elegans, 120 h; 5 days exposure, 2 L4 per well, three biological replicates
Description: as §1, §2
A standard ethyl methanesulfonate (EMS) mutagenesis protocol was carried out using VC2010 in order to generate mutants resistant to CID 2747322 exposure. First larval stage (L1) F2 progeny of mutagenized P0s were exposed to CID 2747322 at 200 μM in liquid worm food in 24-well tissue culture plates for five days at room temperature, and two independently isolated resistant lines (VC3614 and VC3615) were identified. […]

COc1ccc(OCCNC(=O)c2ccccc2C(F)(F)F)cc1 [CID 2747322, N-[2-(4-methoxyphenoxy)ethyl]-2-(trifluoromethyl)benzamide]
IC50 ([1]; 2 L4 per well, three biological replicates, read-out: IC50, strain VC2010 (wild type)): 18 µM
IC50 ([1]; C. elegans, read-out: Nematode IC50): 18 µM
IC50 [2]: 171 µM
IC50 [3]: > 1000 µM
IC50 [4]: 4 µM
IC50 [5]: > 500 µM

— publication PMC5068747, “Using C. elegans Forward and Reverse Genetics to Identify New Compounds with Anthelmintic Activity” (PLoS Neglected Tropical Diseases, 2016)
